Where two headings read alike, the source gives them in different places.
Columns and labels:
Vero-B = test: MTT cytotoxicity assay, normal kidney cell line; format: cell-based, African green monkey; details: Chlorocebus sabaeus, Vero B; Table 1; MTT, 48 hrs incubation; read-out: VERO-B (IC50% μM)
Method: (§1) The cytotoxic activity of the compounds was tested against different mammalian cancer cells, prostate carcinoma cells (PC-3), hepatocellular carcinoma (HepG2) and colon cancer cells (HCT-116) and against African green monkey kidney cell line (Vero-B). The cell lines were obtained from American Type Culture Collection (ATCC). The cells were cultivated at 37° C. and 10% CO2 in DMEM (Lonza, 12-604F) medium supplemented with 10% fetal bovine serum (FBS, Lonza, Cat. No. 14-801E), 100 IU/ml penicillin and 100 μg/ml streptomycin (Lonza, 17-602E). Cisplatin (cis-diamineplatinum (II) dichloride) was used as a positive control and was obtained from Sigma then dissolved in 0.9% saline then stored as 8 mM stock solution at −20° C. The synthesized compounds were solubilized in DMSO and stored at −20° C. 0.5% crystal violet was prepared in Methanol and was used to stain the viable cells (Feoktistova, Geserick et al. 2016). Crystal violet binds to proteins and DNA in the adherent and viable cells so the stain is an indicator for the viability of the treated cells. The viability of the cells were quantified by using MTT reagent (3-(4,5-dimethylthiazol-2-yl)-2,5-diphenyl tetrazolium bromide), which measure the activity of mitochondrial dehydrogenase in the viable cells (Slater, Sawyer et al. 1963, Mosmann 1983).
(§2) Cytotoxicity was further assayed as follows. The cells were seeded in 96-well plate as 5*10^4 cells/mL (100 μL/well). A serial dilutions of tested compounds or cisplatin (100, 30, 10, 3.3, 1.1 or 0.37 μM) was added after overnight incubation of the cells at 37° C. and 5% CO2. DMSO was used as a control (0.1%). The cells were incubated for 48 hrs. After that, 15 μl of MTT (5 mg/mL PBS) was added to each well and incubated for another 4 hours. The formazan crystals were solubilized by 100 μL acidified SDS solution (10% SDS/0.01 M HCl). The absorbance was measured after 14 hours of incubation at 37° C. and 5% CO2 at 570 nm by Biotech plate reader. Each experiment was repeated three times and standard deviation was calculated (±). IC50% was calculated as the concentration that cause 50% inhibition for cell growth. The growth of the cells were monitored and the images were acquired by Gx microscopes (GXMGXD202 Inverted Microscope) (10× Eyepiece) after staining with crystal violet.

PC-3 = test: MTT cytotoxicity assay, prostate carcinoma cells; format: cell-based, human; details: for IC50: Homo sapiens, PC-3, MTT, 48 hrs incubation
Method: as §1, §2

HCT-116 = test: MTT cytotoxicity assay, colon cancer cells; format: cell-based, human; details: for IC50: Homo sapiens, HCT-116, MTT, 48 hrs incubation
Method: as §1, §2

HepG2 = test: MTT cytotoxicity assay, hepatocellular carcinoma cells; format: cell-based, human; details: for IC50: Homo sapiens, HepG2, MTT, 48 hrs incubation
Method: as §1, §2

Q: What does the source list for `O=C(/C=C/c1ccc(F)cc1)[C@H]1[C@H](c2ccc(F)cc2)[C@H]2CSCN2[C@]12C(=O)Nc1ccc(Br)cc12` [Compound 4p, (3R,6′S,7′R,7a′S)-5-bromo-7′-(4-fluorophenyl)-6′-((E)-3-(4-fluorophenyl)acryloyl)-1′,6′,7′,7a′-tetrahydro-3′H-spiro[indoline-3,5′-pyrrolo[1,2-c]thiazol]-2-one]?
A: IC50 (Vero-B): 3 µM; IC50 (PC-3; read-out: PC-3 (IC50% μM)): 1.5 ± 0.1 µM; IC50 (PC-3; read-out: PC-3 (IC50% μg/ml)): 0.8 µg/mL; SI (PC-3; Selectivity Index from IC50 normal (VERO-B) and IC50 cancer (PC-3)): 2; IC50 (HCT-116; read-out: HCT-116 (IC50% μM)): 3.5 ± 0.3 µM; IC50 (HCT-116; read-out: HCT-116 (IC50% μg/ml)): 2 µg/mL; SI (HCT-116; Selectivity Index from IC50 normal (VERO-B) and IC50 cancer (HCT-116)): 0.9571; IC50 (HepG2; read-out: HepG2 (IC50% μM)): 0.8 ± 0.1 µM; IC50 (HepG2; read-out: HepG2 (IC50% μg/ml)): 0.5 µg/mL; SI (HepG2; Selectivity Index from IC50 normal (VERO-B) and IC50 cancer (HepG2)): 3.75

From US9822128B1, “Substituted spirooxindoles” (KING SAUD UNIVERSITY, priority 2017, dated 2017)
